Results as given in patent publication US10800789B2, “Antiviral compounds” (Gilead Pharmasset LLC, priority 2012, dated 2020).
Read-outs that look alike come from different tables or passages of the source.

Legend:
[1] = system: stable HCV 1b RLuc replicon cells (dicistronic genotype 1b Con1 replicon); assay: Renilla luciferase HCV replicon reporter assay, genotype 1b; assay type: cell-based; conditions: Hepatitis C virus, 72 h, stable 1b Con1 RLuc replicon cells, 72 hours; read-out: 1b
Procedure, shortened: (§1)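 Cells carrying the stable or transiently transfected (Huh-Lunet) dicistronic RLuc replicons received 3-fold serial compound dilutions from 10 mM DMSO stocks. After 72 h, cells were lysed and Renilla luciferase read. DMSO served as the no-inhibition control and ITMN-191 above 100×EC50 as the positive control; EC50 by non-linear regression.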

[2] = system: stable HCV 1a RLuc replicon cells (dicistronic genotype 1a H77 replicon); assay: Renilla luciferase HCV replicon reporter assay, genotype 1a; assay type: cell-based; conditions: Hepatitis C virus, 72 h, stable 1a H77 RLuc replicon cells
Procedure, shortened: as §1

[3] = system: stable HCV 2a JFH-1 Rluc replicon cells (L31 present in NS5A); assay: Renilla luciferase HCV replicon reporter assay, genotype 2a JFH-1; assay type: cell-based; conditions: Hepatitis C virus
Procedure, shortened: as §1

[4] = system: NS5A chimeric genotype 2a JFH-1 replicon with genotype 2a J6 strain NS5A gene (M31 present); assay: Replicon assay, genotype 2a J6 NS5A chimera; assay type: cell-based, HCV; conditions: Hepatitis C virus
Procedure, shortened: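 EC50 was fitted by non-linear regression to Renilla luciferase signal after 72 h of exposure to 3-fold serially diluted compound (10 mM DMSO stocks). Controls were DMSO (none) and ITMN-191 above 100×EC50 (full). Chimeric 2a replicons were used either stable or transiently transfected into Huh-Lunet cells.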

[5] = system: NS5A chimeric genotype 2a JFH-1 replicon with genotype 2b MD2b-1 strain NS5A gene (M31 present); assay: Replicon assay, genotype 2b NS5A chimera; assay type: cell-based, HCV; conditions: Hepatitis C virus
Procedure, shortened: as §1

[6] = system: NS5A chimeric genotype 1b Con1 replicon with genotype 3a S52 strain NS5A gene; assay: Replicon assay, genotype 3a NS5A chimera; assay type: cell-based, HCV; conditions: Hepatitis C virus
[7] = system: NS5A chimeric genotype 1b Con1 replicon with genotype 4a ED43 strain NS5A gene; assay: Replicon assay, genotype 4a NS5A chimera; assay type: cell-based, HCV; conditions: Hepatitis C virus
[8] = read-out: 2a JFH (nM), genotype 2a JFH-1 replicon (L31 in NS5A), stable cells
[9] = read-out: 2a JFH, stable 2a JFH-1 Rluc replicon cells, L31 in NS5A, activity range
[10] = read-out: 2a J6 (t) (nM), genotype 2a J6 NS5A chimeric replicon (M31), transiently transfected (t) into Huh-Lunet cells
[11] = read-out: 2a J6 (t), transiently transfected (t) into Huh-Lunet cells, activity range
[12] = 2BS, read-out: 2b (s), stably replicating replicon cells (s), activity range
[13] = read-out: 2b (s) (nM), genotype 2b MD2b-1 NS5A chimeric replicon (M31), stably replicating replicon cells (s)
[14] = read-out: 3a (s) (nM), genotype 3a NS5A chimeric replicon, stable replicon cells (s)
[15] = read-out: 3a (s), (s), activity range
[16] = read-out: 4a (s) (nM), genotype 4a NS5A chimeric replicon, stable replicon cells (s)
[17] = read-out: 4a (s), (s), activity range

Compound | EC50 [1] [nM] | EC50 [2] [nM] | EC50 ([2]; activity range) [nM] | EC50 [3, 8] [nM] | EC50 [3, 9] [nM] | EC50 [4, 10] [nM] | EC50 [4, 11] [nM] | EC50 [5, 12] [nM] | EC50 [5, 13] [nM] | EC50 [6, 14] [nM] | EC50 [6, 15] [nM] | EC50 [7, 16] [nM] | EC50 [7, 17] [nM]
CCC[C@H](NC(=O)OC)C(=O)N1[C@@H](C)CC[C@H]1c1ncc(-c2ccc3c(c2)COc2cc4c(ccc5nc([C@@H]6CC[C@H](C)N6C(=O)[C@H](CCC)NC(=O)OC)[nH]c54)cc2-3)[nH]1 [HA] | 0.019 | 0.018 | < 0.1 | 0.033 | < 0.1 | 4.12 | 1 to 44 | 1 to 44 | 5.42 | 0.132 | 0.1 to 0.999 | 0.028 | < 0.1
COC(=O)N[C@@H](C)C(=O)N1[C@@H](C)CC[C@H]1c1ncc(-c2ccc3c(c2)COc2cc4c(ccc5nc([C@@H]6CC[C@H](C)N6C(=O)[C@@H](NC(=O)OC)C(C)C)[nH]c54)cc2-3)[nH]1 [HL] | 0.021 | 0.017 | < 0.1 | 0.019 | < 0.1 | 1.43 | 1 to 44 | 1 to 44 | 3.72 | 0.127 | 0.1 to 0.999 | 0.02 | < 0.1
CC[C@H]1CC[C@@H](c2nc3ccc4cc5c(cc4c3[nH]2)OCc2cc(-c3cnc([C@@H]4CC[C@H](C)N4C(=O)[C@@H](NC(=O)OC)[C@@H](C)OC)[nH]3)ccc2-5)N1C(=O)[C@@H](NC(=O)OC)[C@@H](C)OC [EK, methyl[(2S,3R)-1-{(2S,5S)-2-[5-(2-{(2S,5S)-5-ethyl-1-[N-(methoxycarbonyl)-O-methyl-L-threonyl]pyrrolidin-2-yl}-1,11-dihydroisochromeno[4′,3′:6,7]naphtho[1,2-d]imidazol-9-yl)-1H-imidazol-2-yl]-5-methylpyrrolidin-1-yl}-3-methoxy-1-oxobutan-2-yl]carbamate] | 0.05 | 0.034 | < 0.1 | 0.03 | < 0.1 | 0.116 | 0.1 to 0.999 | 0.1 to 0.999 | 0.238 | 0.173 | 0.1 to 0.999 | 0.025 | < 0.1
CC[C@H]1CC[C@@H](c2nc3ccc4cc5c(cc4c3[nH]2)OCc2cc(-c3cnc([C@@H]4C[C@H](C)CN4C(=O)[C@@H](NC(=O)OC)C(C)C)[nH]3)ccc2-5)N1C(=O)[C@@H](NC(=O)OC)C1CCOCC1 [IS] | 0.021 | 0.017 | < 0.1 | 0.018 | < 0.1 | 0.052 | < 0.1 | < 0.1 | 0.083 | 0.174 | 0.1 to 0.999 | 0.015 | < 0.1
CC[C@H](C)[C@H](NC(=O)OC)C(=O)N1[C@@H](C)CC[C@H]1c1nc2ccc3cc4c(cc3c2[nH]1)OCc1cc(-c2cnc([C@@H]3CC[C@H](C)N3C(=O)[C@@H](NC(=O)OC)C(C)C)[nH]2)ccc1-4 [GM] | 0.016 | 0.012 | < 0.1 | 0.016 | < 0.1 | 0.222 | 0.1 to 0.999 | 0.1 to 0.999 | 0.658 | 0.048 | < 0.1 | 0.015 | < 0.1
COC(=O)N[C@H](C(=O)N1CCC[C@H]1c1ncc(-c2ccc3c(c2)COc2cc4c(ccc5nc([C@@H]6CCCN6C(=O)[C@@H](NC(=O)OC)[C@@H](C)OC)[nH]c54)cc2-3)[nH]1)[C@@H](C)OC [HG] | 0.109 | 0.06 | < 0.1 | 0.021 | < 0.1 | 0.185 | 0.1 to 0.999 | 0.1 to 0.999 | 0.733 | 0.129 | 0.1 to 0.999 | 0.033 | < 0.1
CC[C@H]1CC[C@@H](c2ncc(-c3ccc4c(c3)COc3cc5c(ccc6nc([C@@H]7C[C@@H]8CCC[C@@H]8N7C(=O)[C@@H](NC(=O)OC)C(C)C)[nH]c65)cc3-4)[nH]2)N1C(=O)[C@@H](NC(=O)OC)C1CCOCC1 [IN] | 0.028 | 0.021 | < 0.1 | 0.03 | < 0.1 | 0.044 | < 0.1 | 0.1 to 0.999 | 0.109 | 0.212 | 0.1 to 0.999 | 0.023 | < 0.1
CC[C@H]1CC[C@@H](c2nc3ccc4cc5c(cc4c3[nH]2)OCc2cc(-c3cnc([C@@H]4CC[C@H](C)N4C(=O)[C@@H](NC(=O)OC)C4CCOCC4)[nH]3)ccc2-5)N1C(=O)[C@@H](NC(=O)OC)C(C)C [IR] | 0.021 | 0.018 | < 0.1 | 0.018 | < 0.1 | 0.084 | < 0.1 | < 0.1 | 0.081 | 0.091 | < 0.1 | 0.017 | < 0.1
CC[C@H](C)[C@H](NC(=O)OC)C(=O)N1[C@@H](C)CC[C@H]1c1ncc(-c2ccc3c(c2)COc2cc4c(ccc5nc([C@@H]6CC[C@H](C)N6C(=O)[C@@H](NC(=O)OC)C(C)C)[nH]c54)cc2-3)[nH]1 [GL] | 0.021 | 0.015 | < 0.1 | 0.024 | < 0.1 | 0.364 | 0.1 to 0.999 | 0.1 to 0.999 | 0.577 | 0.054 | < 0.1 | 0.022 | < 0.1
COC(=O)N[C@H](C(=O)N1[C@@H](C)CC[C@H]1c1nc2ccc3cc4c(cc3c2[nH]1)OCc1cc(-c2cnc([C@@H]3CC[C@H](C)N3C(=O)[C@@H](NC(=O)OC)[C@@H](C)O)[nH]2)ccc1-4)C(C)C [GY] | 0.032 | 0.023 | < 0.1 | 0.013 | < 0.1 | 0.06 | < 0.1 | 0.1 to 0.999 | 0.311 | 0.048 | < 0.1 | 0.015 | < 0.1
COC(=O)N[C@@H](C)C(=O)N1[C@@H](C)CC[C@H]1c1ncc(-c2ccc3c(c2)COc2cc4c(ccc5nc([C@@H]6CC[C@H](C)N6C(=O)[C@H](C)NC(=O)OC)[nH]c54)cc2-3)[nH]1 [HF] | 0.066 | 0.043 | < 0.1 | 0.06 | < 0.1 | 19.5 | 1 to 44 | 1 to 44 | 16.3 | 0.556 | 0.1 to 0.999 | 0.111 | 0.1 to 0.999
